Assay results: US12286632B2, “Rationally-designed synthetic peptide shuttle agents for delivering polypeptide cargos from an extracellular space to the cytosol and/or nucleus of a target eukaryotic cell, uses thereof, methods and kits relating to same” (Feldan Bio Inc., priority 2016, dated 2025)
Bridge positions count the residues as written; N and C are the ends. Ends that are not written are not given here. I, II: the chains in the order shown.

How the values were obtained:
[1] = in vitro; details: human, HeLa cells
[2] = test system: HeLa cells; experiment: GFP-NLS protein transduction assay (flow cytometry: Pos cells %, viability %, relative fluorescence intensity; microscopy)
[3] = in vitro; details: human, HeLa cells; remark: listed apart in the source
[4] = Table 10.3a, Protocol B, HeLa, shuttle 50 μM, GFP-NLS 5 μM, 10 seconds
[5] = Table 10.3e, Protocol B, HeLa, shuttle 20 μM, GFP-NLS 5 μM, 1 minute
[6] = Cell viability (%) (±St Dev.; n = 3)
[7] = Cell viability (%) (±St. Dev.; n = 3)

With “HHHHHHKWKLFKKIGAVLKVLTTGRRRRRRRRR [His-CM18-9Arg]” the viability [1] was 31.63 ± 0.11%, the “Cell viability (%) (±St. Dev.; n = 3)” value ([2]; Table 10.1, Protocol B, HeLa, shuttle 50 μM, GFP-NLS 5 μM, 10 seconds) was 45.8 ± 5.4% and the “Cell viability (%) (±St. Dev.; n = 3)” value [2, 4] was 45.8 ± 3.53%.

In the case of “HHHHHHKWKLFKKIGAVLKVLTTGYARAAARQARACCCCCC (cysteines drawn unpaired) [His-CM18-PTD4-6Cys]”, the “Mean % cells with GFP signal (±St Dev.; n = 3)” value (shortened to “Mean % cells … (±St Dev.; n = 3)”) [2, 5] is reported as 41.3 ± 4.28%.

In the case of “HHHHHHKWKLFKKIGAVLKVLTTGYGRKKRRQRRRC [His-CM18-TAT-Cys]”, the viability at 10 s, 50 µM [3] is reported as 41.4 ± 3.91% and the “Mean % cells with GFP signal (±St. Dev.; n = 3)” value [2, 4] is reported as 49.3 ± 4.1%.

In the case of “HHHHHHKWKLLRRAAKKAARRYLKLLLKQLKLHHHHHH [FSD1]”, the viability [3, 6] is reported as 60.3 ± 6.18%.

For “HHHHHHLAKLFKWLRALIRQGAKRKTKRASAHHHHHH [FSD17]”, the viability [3, 6] was 99.1 ± 2.09%.

For “HHHHHHLALARWARYFRILAKLKRTKRGQAKAHHHHHH [FSD14]”, the viability [3, 6] was 92.8 ± 7.42%.

With “HHHHHHLLKLWRRLLKLFRKALRALAKRAKSALKRAQAA [FSN5]” the viability [3, 7] was 85.4 ± 6.16%.

In the case of “HHHHHHLLKLWSRLLKLWTQALRALAKRAKALAHHHHHH [FSN6]”, the viability [3, 7] is reported as 32.6 ± 4.26% and the “Mean % cells … (±St Dev.; n = 3)” value ([2]; Table B3, HeLa cells, GFP-NLS cargo) is reported as 15.74 ± 1.63%.

Work on “HHHHHHWYLALLALYWQRAKAKTRQRRRHHHHHH [FSD6]” yielded a viability [3, 6] of 88.1 ± 7.66%.

With “I: KWKLFKKIGAVLKVLTTGRQIKIWFQNRRMKWKKC / II: KWKLFKKIGAVLKVLTTGRQIKIWFQNRRMKWKKC (disulfide I:35-II:35) [dCM18-Pen-Cys]” the viability [1] was 3.36 ± 0.26%.

With “KWKLFKKIGAVLKVLTTGHHHHHHYARAAARQARA [CM18-His-PTD4]” the “Cell viability (%) (±St. Dev.; n = 3)” value [2, 5] was 57.7 ± 4.2%.

With “KWKLFKKIGAVLKVLTTGYARAAARQARAHHHHHH [CM18-PTD4-His]” the viability [1] was 29.5 ± 0.21%.

“LHHHSHHLIHIWLLFKLKLKKKKAARRARRARRHH [FSD29]” gave a viability at 1 min, 10 µM [3, 7] of 89.8 ± 8.48%.

Substance LIKLWSRFIKFWTQGRRIKAKLARAGQSWFG [FSN7] has a viability [3, 7] of 93.5 ± 3.61%.

In the case of “MHHHHHHKWKLFKKIGAVLKVLTTGYARAAARQARAC [Met-His-CM18-PTD4-Cys]”, the “Mean % cells … (±St Dev.; n = 3)” value [2, 5] is reported as 45.6 ± 3.88%.

In the case of “MHHHHHHKWKLFKKIGAVLKVLTTGYGRKKRRQRRRC [M-His-CM18-TAT-Cys]”, the viability [1] is reported as 33.1 ± 0.4%.

Substance “RLHHSHHLIHIWLLFKLKLKKKKRAARRARRHHHL [FSD37]” has a viability at 1 min, 10 µM [3, 7] of 73.9 ± 2.62%.

Substance “WEAKLAKALAKALAKHLAKALAKALKACEA [KALA, reference compound]” has a viability [1] of 90.6 ± 4.16%.
